# Measured values reported in patent US20230365592A1 (Agios Pharmaceuticals, Inc., priority 2022, published 2023).
# Target: T1, human PAH with the R408W mutation (Homo sapiens, UniProt P00439, R408W)
# T1 construct: expressed in transfected cells
# T1 sequence (P00439 1-452 R408W): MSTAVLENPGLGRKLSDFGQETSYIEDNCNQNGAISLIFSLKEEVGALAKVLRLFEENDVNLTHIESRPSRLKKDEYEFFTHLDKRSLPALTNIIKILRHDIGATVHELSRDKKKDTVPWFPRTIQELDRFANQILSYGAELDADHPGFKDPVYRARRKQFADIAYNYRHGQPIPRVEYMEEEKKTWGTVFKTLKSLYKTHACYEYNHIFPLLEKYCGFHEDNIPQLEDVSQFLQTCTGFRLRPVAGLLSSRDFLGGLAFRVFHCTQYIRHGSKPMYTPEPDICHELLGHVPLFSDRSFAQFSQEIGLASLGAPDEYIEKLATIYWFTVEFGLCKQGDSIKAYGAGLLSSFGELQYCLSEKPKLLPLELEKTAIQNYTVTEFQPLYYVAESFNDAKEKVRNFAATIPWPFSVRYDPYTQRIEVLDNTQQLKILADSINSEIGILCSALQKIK
# Assay: Cell Based Phenylalanine Flux Assay;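 note: after compound treatment, cells received sepiapterin plus isotope-labelled Phenylalanine for 4 hours, then labelled Tyrosine in the medium was quantified, 10-point 2-fold dilution series run in duplicate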
# Settings: A375 cells expressing human PAH R408W; 24 hrs compound incubation; 13C-Tyrosine by LC-MS; average where tested multiple times; read-out: AC50
row,Compound,AC50 [nM]
1,"FC(F)(F)c1nnc(N2CCc3[nH]cnc3[C@@H]2c2cc3c(C4CC4)cccn3n2)o1 [Example 2056, (R)-2-(4-(4-cyclopropylpyrazolo[1,5-a]pyridin-2-yl)-1,4,6,7-tetrahydro-5H-imidazo[4,5-c]pyridin-5-yl)-5-(trifluoromethyl)-1,3,4-oxadiazole]",> 5000
2,"FC(F)(F)c1nnc(N2CCc3[nH]cnc3[C@H]2c2cc3c(C4CC4)cccn3n2)o1 [Example 2057, (S)-2-(4-(4-cyclopropylpyrazolo[1,5-a]pyridin-2-yl)-1,4,6,7-tetrahydro-5H-imidazo[4,5-c]pyridin-5-yl)-5-(trifluoromethyl)-1,3,4-oxadiazole]",< 500
3,"c1cc(C2CC2)c2cc([C@@H]3c4nc[nH]c4CCN3c3nnc(C4CC4)o3)nn2c1 [Example 2059, (S)-2-cyclopropyl-5-(4-(4-cyclopropylpyrazolo[1,5-a]pyridin-2-yl)-1,4,6,7-tetrahydro-5H-imidazo[4,5-c]pyridin-5-yl)-1,3,4-oxadiazole]",500 to 1000
4,"Cc1cccc2cc([C@@H]3c4nc[nH]c4CCN3C(=O)c3ocnc3C3CC3)nn12 [Example 2070, (S)-(4-cyclopropyloxazol-5-yl)(4-(7-methylpyrazolo[1,5-a]pyridin-2-yl)-1,4,6,7-tetrahydro-5H-imidazo[4,5-c]pyridin-5-yl)methanone]",< 500
5,"Cn1cc(-c2nc(C3CC3)c(C(=O)N3CCc4[nH]cnc4[C@@H]3c3cc4c(F)cccn4n3)o2)cn1 [Example 2072, (R)-(4-cyclopropyl-2-(1-methyl-1H-pyrazol-4-yl)oxazol-5-yl)(4-(4-fluoropyrazolo[1,5-a]pyridin-2-yl)-1,4,6,7-tetrahydro-5H-imidazo[4,5-c]pyridin-5-yl)methanone]",> 5000
6,"O=C(c1ncco1)N1CCc2[nH]cnc2[C@H]1c1cc2c(C(F)F)cccn2n1 [Example 2076, (S)-(4-(4-(difluoromethyl)pyrazolo[1,5-a]pyridin-2-yl)-1,4,6,7-tetrahydro-5H-imidazo[4,5-c]pyridin-5-yl)(oxazol-2-yl)methanone]",500 to 1000
7,"O=C(c1ncco1)N1CCc2[nH]cnc2[C@H]1c1cc2c(C(F)(F)F)cccn2n1 [Example 2078, (S)-oxazol-2-yl(4-(4-(trifluoromethyl)pyrazolo[1,5-a]pyridin-2-yl)-1,4,6,7-tetrahydro-5H-imidazo[4,5-c]pyridin-5-yl)methanone]",500 to 1000
8,"Cc1nnc(N2CCc3[nH]cnc3[C@H]2c2cc3c(C(C)C)cccn3n2)o1 [Example 2083, (S)-2-(4-(4-isopropylpyrazolo[1,5-a]pyridin-2-yl)-1,4,6,7-tetrahydro-5H-imidazo[4,5-c]pyridin-5-yl)-5-methyl-1,3,4-oxadiazole]",< 500
9,"Cc1cccc2cc([C@@H]3c4nc[nH]c4CCN3c3nnc(-c4c(F)cccc4F)o3)nn12 [Example 2091, (S)-2-(2,6-difluorophenyl)-5-(4-(7-methylpyrazolo[1,5-a]pyridin-2-yl)-1,4,6,7-tetrahydro-5H-imidazo[4,5-c]pyridin-5-yl)-1,3,4-oxadiazole]",< 500
10,"Fc1cccc(F)c1-c1nnc(N2CCc3[nH]cnc3[C@@H]2c2cc3cccc(C(F)F)n3n2)o1 [Example 2092, (R)-2-(4-(7-(difluoromethyl)pyrazolo[1,5-a]pyridin-2-yl)-1,4,6,7-tetrahydro-5H-imidazo[4,5-c]pyridin-5-yl)-5-(2,6-difluorophenyl)-1,3,4-oxadiazole]",> 5000
11,"Cc1cccc2cc([C@H]3c4nc[nH]c4CCN3c3ccc(C(F)(F)F)cn3)nn12 [Example 2096, (R)-4-(7-methylpyrazolo[1,5-a]pyridin-2-yl)-5-(5-(trifluoromethyl)pyridin-2-yl)-4,5,6,7-tetrahydro-1H-imidazo[4,5-c]pyridine]",> 5000
12,"O=C(c1cnc(C2CC2)o1)N1CCc2[nH]cnc2[C@H]1c1cc2c(C(F)F)cccn2n1 [Example 2102, (S)-(2-cyclopropyloxazol-5-yl)(4-(4-(difluoromethyl)pyrazolo[1,5-a]pyridin-2-yl)-1,4,6,7-tetrahydro-5H-imidazo[4,5-c]pyridin-5-yl)methanone]",< 500

# The remaining lines, values ahead:
row,AC50 [nM],Compound
1,500 to 1000,"CC(C)(F)c1nnc(C(=O)N2CCc3[nH]cnc3[C@H]2c2cc3c(C4CC4)cccn3n2)o1 [Example 2061, (S)-(4-(4-cyclopropylpyrazolo[1,5-a]pyridin-2-yl)-1,4,6,7-tetrahydro-5H-imidazo[4,5-c]pyridin-5-yl)(5-(2-fluoropropan-2-yl)-1,3,4-oxadiazol-2-yl)methanone]"
2,< 500,"Fc1cccc(F)c1-c1nnc(N2CCc3[nH]cnc3[C@H]2c2cc3c(Cl)cccn3n2)o1 [Example 2063, (S)-2-(4-(4-chloropyrazolo[1,5-a]pyridin-2-yl)-1,4,6,7-tetrahydro-5H-imidazo[4,5-c]pyridin-5-yl)-5-(2,6-difluorophenyl)-1,3,4-oxadiazole]"
3,500 to 1000,"Cc1c(-c2ncc(C(=O)N3CCc4[nH]cnc4[C@H]3c3cc4c(F)cccn4n3)o2)cnn1C [Example 2066, (S)-(2-(1,5-dimethyl-1H-pyrazol-4-yl)oxazol-5-yl)(4-(4-fluoropyrazolo[1,5-a]pyridin-2-yl)-1,4,6,7-tetrahydro-5H-imidazo[4,5-c]pyridin-5-yl)methanone]"
4,> 5000,"Cc1c(-c2ncc(C(=O)N3CCc4[nH]cnc4[C@@H]3c3cc4c(F)cccn4n3)o2)cnn1C [Example 2067, (R)-(2-(1,5-dimethyl-1H-pyrazol-4-yl)oxazol-5-yl)(4-(4-fluoropyrazolo[1,5-a]pyridin-2-yl)-1,4,6,7-tetrahydro-5H-imidazo[4,5-c]pyridin-5-yl)methanone]"
5,500 to 1000,"Cc1c(-c2ncc(C(=O)N3CCc4[nH]cnc4[C@H]3c3cc4c(C(F)F)cccn4n3)o2)cnn1C [Example 2068, (S)-(4-(4-(difluoromethyl)pyrazolo[1,5-a]pyridin-2-yl)-1,4,6,7-tetrahydro-5H-imidazo[4,5-c]pyridin-5-yl)(2-(1,5-dimethyl-1H-pyrazol-4-yl)oxazol-5-yl)methanone]"
6,500 to 1000,"Cn1cc(-c2nc(C3CC3)c(C(=O)N3CCc4[nH]cnc4[C@H]3c3cc4c(F)cccn4n3)o2)cn1 [Example 2073, (S)-(4-cyclopropyl-2-(1-methyl-1H-pyrazol-4-yl)oxazol-5-yl)(4-(4-fluoropyrazolo[1,5-a]pyridin-2-yl)-1,4,6,7-tetrahydro-5H-imidazo[4,5-c]pyridin-5-yl)methanone]"
7,< 500,Cc1cccn2nc([C@@H]3c4nc[nH]c4CCN3C(=O)c3oc(-c4cnn(C)c4)nc3C3CC3)cc12 [Example 2074]
8,> 5000,"O=C(c1ncco1)N1CCc2[nH]cnc2[C@@H]1c1cc2c(C(F)F)cccn2n1 [Example 2077, (R)-(4-(4-(difluoromethyl)pyrazolo[1,5-a]pyridin-2-yl)-1,4,6,7-tetrahydro-5H-imidazo[4,5-c]pyridin-5-yl)(oxazol-2-yl)methanone]"
9,< 500,"O=C(C1CCC1)N1CCc2[nH]cnc2[C@H]1c1cc2c(F)cccn2n1 [Example 2080, (S)-cyclobutyl(4-(4-fluoropyrazolo[1,5-a]pyridin-2-yl)-1,4,6,7-tetrahydro-5H-imidazo[4,5-c]pyridin-5-yl)methanone]"
10,> 5000,"CC(C)c1cccn2nc([C@H]3c4nc[nH]c4CCN3c3nnc(C(F)F)o3)cc12 [Example 2084, (R)-2-(difluoromethyl)-5-(4-(4-isopropylpyrazolo[1,5-a]pyridin-2-yl)-1,4,6,7-tetrahydro-5H-imidazo[4,5-c]pyridin-5-yl)-1,3,4-oxadiazole]"
11,< 500,"CC(C)c1cccn2nc([C@@H]3c4nc[nH]c4CCN3c3nnc(C(F)F)o3)cc12 [Example 2085, (S)-2-(difluoromethyl)-5-(4-(4-isopropylpyrazolo[1,5-a]pyridin-2-yl)-1,4,6,7-tetrahydro-5H-imidazo[4,5-c]pyridin-5-yl)-1,3,4-oxadiazole]"
12,< 500,"Fc1ccc(-c2nnc(N3CCc4[nH]cnc4[C@H]3c3cc4cccc(Cl)n4n3)o2)cc1 [Example 2086, (S)-2-(4-(7-chloropyrazolo[1,5-a]pyridin-2-yl)-1,4,6,7-tetrahydro-5H-imidazo[4,5-c]pyridin-5-yl)-5-(4-fluorophenyl)-1,3,4-oxadiazole]"
13,< 500,"Fc1cccc(F)c1-c1nnc(N2CCc3[nH]cnc3[C@H]2c2cc3cccc(Cl)n3n2)o1 [Example 2089, (S)-2-(4-(7-chloropyrazolo[1,5-a]pyridin-2-yl)-1,4,6,7-tetrahydro-5H-imidazo[4,5-c]pyridin-5-yl)-5-(2,6-difluorophenyl)-1,3,4-oxadiazole]"
14,< 500,"Fc1cccc(F)c1-c1nnc(N2CCc3[nH]cnc3[C@H]2c2cc3cccc(C(F)F)n3n2)o1 [Example 2093, (S)-2-(4-(7-(difluoromethyl)pyrazolo[1,5-a]pyridin-2-yl)-1,4,6,7-tetrahydro-5H-imidazo[4,5-c]pyridin-5-yl)-5-(2,6-difluorophenyl)-1,3,4-oxadiazole]"
15,< 500,"FC(F)(F)c1ccc(N2CCc3[nH]cnc3[C@H]2c2cc3c(Cl)cccn3n2)nc1 [Example 2095, (S)-4-(4-chloropyrazolo[1,5-a]pyridin-2-yl)-5-(5-(trifluoromethyl)pyridin-2-yl)-4,5,6,7-tetrahydro-1H-imidazo[4,5-c]pyridine]"
16,< 500,"CC(C)(C)c1ncc(C(=O)N2CCc3[nH]cnc3[C@H]2c2cc3c(C(F)F)cccn3n2)o1 [Example 2104, (S)-(2-(tert-butyl)oxazol-5-yl)(4-(4-(difluoromethyl)pyrazolo[1,5-a]pyridin-2-yl)-1,4,6,7-tetrahydro-5H-imidazo[4,5-c]pyridin-5-yl)methanone]"
